Test results taken from publication PMC7442744 (Journal of the American Chemical Society, 2020).

Molecular target: human SQOR (sulfide quinone oxidoreductase) (Homo sapiens, UniProt Q9Y6N5)
Test: absorption spectroscopy, charge transfer complex formation
Assay type: binding
Details: covalent; 5 mM sulfite, 5 μM native SQOR, 20 °C, 1 min

Chain of human SQOR (sulfide quinone oxidoreductase) (Q9Y6N5 42-450): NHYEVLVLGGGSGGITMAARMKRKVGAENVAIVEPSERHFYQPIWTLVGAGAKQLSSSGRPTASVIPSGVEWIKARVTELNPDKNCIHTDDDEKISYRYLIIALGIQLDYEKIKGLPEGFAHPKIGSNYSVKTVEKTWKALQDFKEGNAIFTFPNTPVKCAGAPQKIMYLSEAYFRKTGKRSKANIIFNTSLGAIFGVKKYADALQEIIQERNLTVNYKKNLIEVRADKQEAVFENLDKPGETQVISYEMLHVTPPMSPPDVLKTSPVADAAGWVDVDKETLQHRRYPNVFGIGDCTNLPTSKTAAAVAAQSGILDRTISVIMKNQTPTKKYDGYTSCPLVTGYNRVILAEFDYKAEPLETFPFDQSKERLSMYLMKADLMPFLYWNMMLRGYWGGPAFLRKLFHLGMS

## O=S(O)O [sulfite]
  absorption spectroscopy, charge transfer complex formation: sulfite treatment, which forms a strong CT complex when added to native SQOR
